“And” between values parts separate entries of the source, which are not always exact repeats. Identical values can stand only once. Like-named read-outs stand apart in the source and are kept apart here.
Key:
[1] = tested on: L1210 Leukemia; assay: growth-inhibitory effects against mouse tumor line L1210 in suspension cell culture; type: cell-based; settings: L1210, 72 h
Procedure: In another test protocol, growth-inhibitory effects are measured against the mouse tumor line L1210 in suspension cell culture. Cell cultures were initiated at a density of 50,000 cells/ml in medium RPMI […] supplemented with 10 percent fetal calf serum. Composition of this culture medium and details of the culture procedure follow the published method (Journal of the National Cancer Institute 36, 405-415, 1966). Cultures are maintained at 37 degrees in stationary suspension culture under a 95 percent air +5 percent CO2 atmosphere. Test compounds are added to treated cultures at the time of initiation, and are present continually. After 72 hours, 40-fold dilutions of drug-treated and untreated control cultures are prepared in 0.9 percent NaCl solution, and cells are counted on an electronic particle counter. The growth-inhibitory effects are expressed as ID50 values, namely test compound inhibitory dosages or concentrations required to decrease cell count in treated cultures to 50 percent of the cell count of untreated control cultures.

[2] = tested on: Bacillus subtilis PD04555; assay: in vitro antibacterial/antifungal (ABF) agar-disk diffusion assay, Bacillus subtilis; type: cell-based; settings: read-out: Inhibition Zone Diameter
Procedure: (§1) One test protocol is the in vitro antibacterial/antifungal (ABF) test. Compounds are tested for antimicrobial activity in an agar-disk diffusion assay, a standard microbiological technique for testing antibiotics. After incubation of each culture with a test compound, a zone of inhibition is determined. The zone diameter (mm) of active compounds ranges from a minimum of 14 mm to as high as 18 mm, with a greater diameter reflecting higher activity. For convenience, values are reported for three gram-negative bacterial species, Alcaligenes viscolactis ATCC 21698, Escherichia coli Tol and PD04863, Branhamella catarrhalis PD03596; and one gram-positive bacterium, Bacillus subtilis PD04555.

[3] = tested on: Escherichia coli PD08463; assay: in vitro antibacterial/antifungal (ABF) agar-disk diffusion assay, Escherichia coli PD08463; type: cell-based; settings: 5.0 mg/ml, read-out: Inhibition Zone Diameter
Procedure: as §1

[4] = tested on: Alcaligenes viscolactis (ATCC-21698); assay: in vitro antibacterial/antifungal (ABF) agar-disk diffusion assay, Alcaligenes viscolactis; type: cell-based; settings: read-out: Inhibition Zone Diameter
Procedure: as §1

[5] = tested on: B16 Melanoma; assay: solid tumor B16 melanoma in mice; type: in vivo, mice (B6C3F1); settings: IP/IP, QOID × 9
Procedure: Another test protocol utilizes the solid tumor B16 melanoma in mice. The tumor is inoculated by intraperitoneal injection. The test compounds are administered intraperitoneally once daily for nine consecutive days at various doses following tumor inoculation. A ratio of survival time for treated (T)/control (C) animals is calculated. A criterion for efficacy is a ratio T/C times 100 greater than or equal to […]. See Cancer Therapy Reviews, 7,167(1980) and references cited therein for further details and interpretation of the test.
*Procedure described in Cancer Chemotherapy Reviews, 7, 167 (1980) and
references cited therein.

[6] = tested on: Branhamella catarrhalis PD03596; assay: in vitro antibacterial/antifungal (ABF) agar-disk diffusion assay, Branhamella catarrhalis; type: cell-based; settings: Moraxella catarrhalis, 5.0 mg/ml, read-out: Inhibition Zone Diameter
Procedure: as §1

[7] = tested on: Escherichia coli Tol; assay: in vitro antibacterial/antifungal (ABF) agar-disk diffusion assay, Escherichia coli Tol; type: cell-based; settings: read-out: Inhibition Zone Diameter
Procedure: as §1

[8] = tested on: P388 Leukemia; assay: in vivo lymphocytic leukemia P388 test; design: species or system mice (CD2 F1); settings: IP/IP, QOID × 5
Procedure: Another test protocol is the in vivo lymphocytic leukemia P388 test. The animals used are either male or female CD2 F1 mice, six or seven animals per test group. The tumor transplant is by intraperitoneal injection of dilute ascitic fluid containing cells of lymphocytic leukemia P388. The test compounds are administered intraperitoneally once daily for five consecutive days at various doses following tumor inoculation. The animals are weighed and survivors are recorded on a regular basis for 30 days. A compound is designated "toxic" if, at a given dose, all animals died prior to four days after the first injection of drug. A ratio of survival time for treated (T)/control (C) animals is calculated. A criterion for efficacy is a ratio T/C times 100 greater than or equal to 125. See Cancer Chemotherapy Reports, Part 3, 3, 1 (1972) for a comprehensive discussion of the protocol.

[9] = Test 1, read-out: Molar Concentration Required for 50% Inhibition of Growth (ID50)
[10] = Test 2, read-out: Molar Concentration Required for 50% Inhibition of Growth (ID50)
[11] = 25 mg/kg, listed as 5,8-Dichloro-4-hydroxy-1-[ [2-[(2-hydroxyethyl)aminoethyl]amino]-7,10-anthracene
[12] = 50 mg/kg, listed as 5,8-Dichloro-4-hydroxy-1-[ [2-[(2-hydroxyethyl)aminoethyl]amino]-7,10-anthracene
[13] = 100 mg/kg, listed as 5,8-Dichloro-4-hydroxy-1-[ [2-[(2-hydroxyethyl)aminoethyl]amino]-7,10-anthracene

SMILES: CN(C)CCNc1ccc(O)c2c1C(=O)c1c(Cl)ccc(Cl)c1C2=O [5,8-dichloro-4-hydroxy-1-[2-(dimethylamino)ethyl]amino-9,10-anthracenedione]
- IC50 [1, 9]: 91.9 nM
- IC50 [1, 10]: 80.9 nM

SMILES: O=C1c2c(O)ccc(NCCNCCO)c2C(=O)c2c(Cl)ccc(Cl)c21 [5,8-dichloro-4-hydroxy-1-[[2-[(2-hydroxyethyl)aminoethyl]amino]]-9,10-anthracenedione]
- IC50 [1, 9]: 86.6 nM
- IC50 [1, 10]: 111 nM
- zone of inhibition at 1000 µg/mL ([2]; 1.0 mg/ml): 14 mm
- zone of inhibition at 5000 µg/mL ([2]; 5.0 mg/ml): 16 mm
- zone of inhibition at 5000 µg/mL [3]: 14 mm
- zone of inhibition at 1000 µg/mL ([4]; ATCC21698, 1.0 mg/ml): 14 mm
- zone of inhibition at 5000 µg/mL ([4]; ATCC21698, 5.0 mg/ml): 15 mm
- T/C × 100 ([5]; 6.25 mg/kg): 166%
- T/C × 100 ([5]; 12.5 mg/kg): 172%
- cures ([5]; 12.5 mg/kg): cures
- T/C × 100 ([5]; 20 mg/kg): 224%
- cures ([5]; 25 mg/kg): cures
- T/C × 100 [5, 11]: 199% and 130%
- T/C × 100 ([5]; 40 mg/kg): 231%
- cures ([5]; 40 mg/kg): cures
- cures ([5]; 50 mg/kg): cures
- T/C × 100 [5, 12]: 252% and 143%
- T/C × 100 ([5]; 80 mg/kg): 271%
- cures ([5]; 80 mg/kg): cures
- cures ([5]; 100 mg/kg): cures
- T/C × 100 [5, 13]: 270% and 191%
- T/C × 100 ([5]; 160 mg/kg): 326%
- T/C × 100 ([5]; 200 mg/kg, listed as 5,8-Dichloro-4-hydroxy-1-[ [2-[(2-hydroxyethyl)aminoethyl]amino]-7,10-anthracene): 180% and 172%
- T/C × 100 ([5]; 400 mg/kg): 190%
- zone of inhibition at 5000 µg/mL [6]: 14 mm
- zone of inhibition at 1000 µg/mL ([7]; 1.0 mg/ml): 15 mm
- zone of inhibition at 5000 µg/mL ([7]; 5.0 mg/ml): 18 mm
- T/C × 100 ([8]; 6.25 mg/kg): 154%
- T/C × 100 ([8]; 12.5 mg/kg): 146%
- cures ([8]; 25 mg/kg): cures
- T/C × 100 [8, 11]: 242% and 163%
- T/C × 100 [8, 12]: 175% and 188% and 177%
- T/C × 100 [8, 13]: 235% and 202%

Reference: patent publication US4782092A, “5,8-dichloro-4-hydroxy-1-[(aminoalkyl) amino]-9,10-anthracenediones, pharmaceutical compositions and use” (Mid-America Cancer Center, priority 1986, dated 1988)
